In test [1] the target is T1, human DGKα (Homo sapiens, UniProt P23743).
T1 construct: TVMV protease cleavage site (C); Hexa-His (C); made in house; host or cells: Sf9 insect cells (baculovirus, Bac-to-Bac)
In words: DGKα LIPGLO assay (extruded liposome substrate), in vitro DGK inhibition. It counts as biochemical. The note with it: liposome (LIPGLO) assay; read-out: DGKa LIPGLO IC50.

In test [2] the target is T2, human DGKζ (Homo sapiens, UniProt Q13574).
T2 construct: TVMV protease cleavage site (C); Hexa-His (C); made in house; host or cells: Sf9 insect cells (baculovirus, Bac-to-Bac)
T2 sequence (Q13574 with tags, fused parts or gaps isoform Q13574-4): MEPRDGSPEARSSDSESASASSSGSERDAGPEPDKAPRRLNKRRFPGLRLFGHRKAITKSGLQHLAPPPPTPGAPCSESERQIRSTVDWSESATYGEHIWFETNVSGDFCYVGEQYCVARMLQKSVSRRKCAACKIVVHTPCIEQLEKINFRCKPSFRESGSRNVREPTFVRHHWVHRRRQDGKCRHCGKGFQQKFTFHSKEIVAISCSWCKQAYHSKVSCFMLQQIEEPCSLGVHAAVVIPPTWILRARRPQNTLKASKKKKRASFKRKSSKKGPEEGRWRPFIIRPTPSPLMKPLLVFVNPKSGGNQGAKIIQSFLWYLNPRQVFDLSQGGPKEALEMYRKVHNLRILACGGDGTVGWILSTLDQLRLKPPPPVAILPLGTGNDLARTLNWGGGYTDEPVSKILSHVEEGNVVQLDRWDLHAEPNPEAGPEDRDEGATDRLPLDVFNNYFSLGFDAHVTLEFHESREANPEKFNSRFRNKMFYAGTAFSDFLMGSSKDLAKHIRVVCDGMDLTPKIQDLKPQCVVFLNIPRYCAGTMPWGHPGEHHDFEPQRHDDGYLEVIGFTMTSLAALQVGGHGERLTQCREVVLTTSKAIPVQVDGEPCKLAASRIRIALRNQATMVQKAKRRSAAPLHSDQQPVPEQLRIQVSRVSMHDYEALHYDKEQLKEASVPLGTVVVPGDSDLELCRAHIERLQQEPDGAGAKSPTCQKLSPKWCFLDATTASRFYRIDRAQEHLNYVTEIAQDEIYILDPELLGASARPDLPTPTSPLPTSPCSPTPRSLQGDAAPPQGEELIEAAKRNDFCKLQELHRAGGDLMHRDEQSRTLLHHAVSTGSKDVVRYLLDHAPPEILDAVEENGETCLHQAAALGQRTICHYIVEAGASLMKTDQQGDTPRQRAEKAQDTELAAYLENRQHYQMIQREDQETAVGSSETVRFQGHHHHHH
The test can be described thus: DGKζ LIPGLO assay (extruded liposome substrate), in vitro DGK inhibition. It counts as biochemical. The following applies: liposome (LIPGLO) assay; read-out: DGKz LIPGLO IC50.

Test [3] deals with Human venous whole blood. In words: Human whole blood IFN-γ assay.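 Also: blood from healthy donors exposed to compound for 1 h before stimulation with anti-CD3 and anti-CD28 at 1 µg/mL each, IFN-γ quantified in supernatant by AlphaLISA.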 It counts as cell-based. The note with it: human whole blood, normalized to 3 μM reference compound with anti-CD3 plus anti-CD28 as 100% activation, read-out: INFg Whole Blood Normalized Agonist EC50.
Protocol: Human Whole Blood IFN-γ Assay
Human venous whole blood (22.5 μL per well), obtained from healthy donors, was pre-treated with compounds for one hour at 37° C. in a humidified 95% air/5% CO2 incubator. The blood was stimulated with 2.5 μL anti-human CD3 and anti-CD28 mAb at a final concentration of 1 μg/mL each for 24 hours at 37° C. IFN-γ in the supernatants was measured using AlphLISA kit (Cat # AL217).

The structures appear in SMILES notation. Read-outs that look alike come from different tables or passages of the source.

T1 sequence (P23743 with tags, fused parts or gaps): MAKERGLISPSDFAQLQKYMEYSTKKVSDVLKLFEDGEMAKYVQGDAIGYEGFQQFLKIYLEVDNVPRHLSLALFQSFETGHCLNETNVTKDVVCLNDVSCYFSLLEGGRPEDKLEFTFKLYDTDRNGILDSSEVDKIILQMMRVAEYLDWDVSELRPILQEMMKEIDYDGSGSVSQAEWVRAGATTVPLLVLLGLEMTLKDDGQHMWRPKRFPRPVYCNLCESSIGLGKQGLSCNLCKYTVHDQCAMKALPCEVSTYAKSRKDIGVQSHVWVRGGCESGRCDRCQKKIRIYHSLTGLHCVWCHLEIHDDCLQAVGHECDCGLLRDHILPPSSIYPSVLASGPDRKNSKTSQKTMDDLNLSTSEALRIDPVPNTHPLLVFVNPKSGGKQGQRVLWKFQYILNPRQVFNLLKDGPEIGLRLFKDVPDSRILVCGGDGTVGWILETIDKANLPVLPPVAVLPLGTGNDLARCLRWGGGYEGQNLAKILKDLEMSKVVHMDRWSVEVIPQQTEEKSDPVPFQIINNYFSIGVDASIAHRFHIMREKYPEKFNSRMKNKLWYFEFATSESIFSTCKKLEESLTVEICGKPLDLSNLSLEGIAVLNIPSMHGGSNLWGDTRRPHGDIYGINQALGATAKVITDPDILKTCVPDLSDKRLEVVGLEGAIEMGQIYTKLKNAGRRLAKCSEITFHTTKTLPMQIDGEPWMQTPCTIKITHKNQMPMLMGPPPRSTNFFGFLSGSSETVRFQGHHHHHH

Broadly, the IC50 is the concentration needed to halve the response being measured. What is called EC50 is the concentration at which the effect is half-maximal. For `CC(c1ccc(OC(F)(F)F)cc1)N1C[C@H](C)N(c2cc(=O)n(C)c3ccc(C#N)nc23)C[C@H]1CO` (single isomer, unassigned) [Example 1387], the IC50 in test [1] is 2600 nM; in test [2] it was 12000 nM. Also, the EC50 in test [3] is 20000 nM.
For the molecule `C[C@H]1CN(C(c2ccc(F)cc2)c2ccc(C(F)(F)F)cn2)[C@H](CO)CN1c1cc(=O)n(C)c2ccc(C#N)nc12` (single isomer, unassigned) [Example 1388], the IC50 is 1100 nM in test [1] and 2800 nM in test [2]. Further, the 50% effective concentration (EC50) in test [3] (Homo sapiens, 24 h) worked out at 880 nM.
Take `C[C@H]1CN(C(c2ccc(F)cc2)c2ccc(C(F)(F)F)cn2)[C@H](CO)CN1c1cc(=O)n(C)c2ccc(C#N)nc12` (single isomer, unassigned) [Example 1389]: the half-maximal inhibitory concentration (IC50) in test [1] worked out at 170 nM; in test [2], 880 nM. Further, the EC50 in test [3] was determined as 920 nM.
As for `C[C@H]1CN(C(c2ccc(F)cc2)c2ccon2)[C@H](CO)CN1c1cc(=O)n(C)c2ccc(C#N)nc12` (single isomer, unassigned) [Example 1391], the concentration for half-maximal inhibition (IC50) is 150 nM in test [1] and 2000 nM in test [2]. In addition, the EC50 in test [3] turned out to be 700 nM.
For `C[C@H]1CN(C(c2ccc(F)cc2)c2ccon2)[C@H](CO)CN1c1cc(=O)n(C)c2ccc(C#N)nc12` (single isomer, unassigned) [Example 1392] the same measures were 1900 nM, 3800 nM and 14000 nM.
On to `COC[C@@H]1CN(c2cc(=O)n(C)c3ccc(C#N)nc23)[C@@H](C)CN1C(c1ccc(F)cc1)c1nc(C2CC2)no1` (single isomer, unassigned) [Example 1394], for which the IC50 in test [1] is 53 nM; in test [2] it was 37 nM. Moreover, the EC50 in test [3] (Homo sapiens, 24 h) was found to be 450 nM.
For `COC[C@@H]1CN(c2cc(=O)n(C)c3ccc(C#N)nc23)[C@@H](C)CN1C(c1ccc(F)cc1)c1nc(C2CC2)cs1` (single isomer, unassigned) [Example 1396], the IC50 in test [1] was found to be 62 nM; in test [2] it was 12 nM. For the same molecule, the EC50 in test [3] stood at 26 nM.
For `COC[C@@H]1CN(c2cc(=O)n(C)c3ccc(C#N)nc23)[C@@H](C)CN1C(c1ccc(F)cc1)c1ccon1` (single isomer, unassigned) [Example 1399] the same measures were 160 nM, 450 nM and 3000 nM.
Take `COC[C@@H]1CN(c2cc(=O)n(C)c3ccc(C#N)nc23)[C@@H](C)CN1C(c1ccc(F)cc1)c1ccon1` (single isomer, unassigned) [Example 1400]: the IC50 in test [1] came to 53 nM; in test [2] it was 20 nM. The EC50 in test [3] turned out to be 120 nM.
For `COCCOC[C@@H]1CN(c2cc(=O)n(C)c3ccc(C#N)nc23)[C@@H](C)CN1C(C)c1ccc(OC(F)(F)F)cc1` (single isomer, unassigned) [Example 1405], the 50% inhibitory concentration (IC50) in test [1] was 960 nM; in test [2], 57 nM. The EC50 in test [3] (Homo sapiens, 24 h) worked out at 480 nM.
Taken in the same sequence, the figures for `COCCOC[C@@H]1CN(c2cc(=O)n(C)c3ccc(C#N)nc23)[C@@H](C)CN1C(C)c1ccc(OC(F)(F)F)cc1` (single isomer, unassigned) [Example 1406] were 2700 nM, 950 nM and 12000 nM.
Taken in the same sequence, the figures for `CC[C@H]1CN(C(C)c2ccc(OC(F)(F)F)cc2)[C@H](COC)CN1c1cc(=O)n(C)c2ccc(C#N)nc12` (single isomer, unassigned) [Example 1409] were 9200 nM, 810 nM and 2300 nM.
For `CC(c1ccc(OC(F)(F)F)cc1)N1C[C@H](C)N(c2cc(=O)n(C)c3ccc(C#N)nc23)C[C@H]1CC#N` (single isomer, unassigned) [Example 1411] the same measures were 200 nM, 1200 nM and 2200 nM.
Regarding `CC(c1ccc(OC(F)(F)F)cc1)N1C[C@H](C)N(c2cc(=O)n(C)c3ccc(C#N)nc23)C[C@H]1CC#N` (single isomer, unassigned) [Example 1412], the IC50 in test [1] turned out to be 290 nM; in test [2], 1700 nM. Further, the EC50 in test [3] (Homo sapiens, 24 h) turned out to be 1600 nM.
With `CC(c1ccc(OC(F)(F)F)cc1)N1C[C@H](C)N(c2cc(=O)n(C)c3ccc(C#N)nc23)C[C@H]1CN(C)C` (single isomer, unassigned) [Example 1414], the IC50 in test [1] is 40000 nM; in test [2], 4900 nM. For the same molecule, in test [3] (Homo sapiens, 24 h), the EC50 amounted to 10000 nM.
As for `CC(c1ccc(OC(F)(F)F)cc1)N1C[C@H](C)N(c2cc(=O)n(C)c3ccc(C#N)nc23)C[C@H]1CN1CCOCC1` (single isomer, unassigned) [Example 1415], the figures for the 50% inhibitory concentration (IC50) in test [1] and in test [2] were 19000 nM and 1800 nM, respectively. Also, in test [3], the EC50 was found to be 6900 nM.
Consider `CC(c1ccc(OC(F)(F)F)cc1)N1C[C@H](C)N(c2cc(=O)n(C)c3ccc(C#N)nc23)C[C@H]1CN1CCOCC1` (single isomer, unassigned) [Example 1416], for which the IC50 in test [1] was found to be 48000 nM; in test [2], 52000 nM. Also, the EC50 in test [3] was 20000 nM.
On to `CC(c1ccc(OC(F)(F)F)cc1)N1C[C@H](CO)N(c2cc(=O)n(C)c3ccc(C#N)nc23)C[C@H]1C` (single isomer, unassigned) [Example 1419], for which the IC50 came out at 75 nM in test [1] and 680 nM in test [2]. Moreover, the EC50 in test [3] (Homo sapiens, 24 h) is 1100 nM.
Regarding `CC(c1ccc(OC(F)(F)F)cc1)N1C[C@H](CO)N(c2cc(=O)n(C)c3ccc(C#N)nc23)C[C@H]1C` (single isomer, unassigned) [Example 1420], the values for the IC50 in test [1] and in test [2] were 820 nM and 1700 nM, respectively. In test [3], the EC50 came out at 1700 nM.
Turning to `CCC(c1ccc(OCC2CC2)cc1)N1C[C@H](C)N(c2cc(=O)n(C)c3ccc(C#N)nc23)C[C@H]1C` (single isomer, unassigned) [Example 1440], the values for the IC50 in test [1] and in test [2] were 1600 nM and 1100 nM, respectively. Further, in test [3] (Homo sapiens, 24 h), the EC50 turned out to be 2100 nM.
As for `CC(c1ccc(OC(C)(C)C)cc1)N1C[C@H](C)N(c2cc(=O)n(C)c3ccc(C#N)nc23)C[C@H]1C` (single isomer, unassigned) [Example 1441], the IC50 in test [1] was found to be 20000 nM; in test [2], 4800 nM. Moreover, the EC50 in test [3] came out at 5400 nM.
Take `CC(c1ccc(OC(C)(C)C)cc1)N1C[C@H](C)N(c2cc(=O)n(C)c3ccc(C#N)nc23)C[C@H]1C` (single isomer, unassigned) [Example 1442]: the IC50 came out at 65 nM in test [1] and 1000 nM in test [2]. In test [3], the concentration giving a half-maximal response (EC50) came to 530 nM.
Turning to `CCC(c1ccc(OC(C)(C)C)cc1)N1C[C@H](C)N(c2cc(=O)n(C)c3ccc(C#N)nc23)C[C@H]1C` (single isomer, unassigned) [Example 1443], the IC50 in test [1] is 56 nM; in test [2], 240 nM. Further, the EC50 in test [3] (Homo sapiens, 24 h) was 810 nM.
As for `CCC(c1ccc(OCCC2CC2)cc1)N1C[C@H](C)N(c2cc(=O)n(C)c3ccc(C#N)nc23)C[C@H]1C` (single isomer, unassigned) [Example 1445], the IC50 in test [1] was determined as 5400 nM; in test [2], 3600 nM. Further, in test [3], the EC50 stood at 5300 nM.
For `CCC(c1ccc(OCCC2CC2)cc1)N1C[C@H](C)N(c2cc(=O)n(C)c3ccc(C#N)nc23)C[C@H]1C` (single isomer, unassigned) [Example 1446] the same measures were 260 nM, 230 nM and 230 nM.
Consider `CCC(c1ccc(OC(C)C)cc1)N1C[C@H](C)N(c2cc(=O)n(C)c3ccc(C#N)nc23)C[C@H]1CC` (single isomer, unassigned) [Example 1447], for which the values for the IC50 in test [1] and in test [2] were 280 nM and 24 nM, respectively. The EC50 in test [3] turned out to be 50 nM.
Take `CCC(c1ccc(OC(C)C)cc1)N1C[C@H](C)N(c2cc(=O)n(C)c3ccc(C#N)nc23)C[C@H]1CC` (single isomer, unassigned) [Example 1448]: the 50% inhibitory concentration (IC50) in test [1] is 4200 nM; in test [2] it was 1700 nM. The EC50 in test [3] was determined as 1600 nM.
For `CCC(c1ccc(OC(C)C)cc1)N1C[C@H](C)N(c2cc(=O)n(C)c3ccc(C#N)nc23)C[C@H]1C` (single isomer, unassigned) [Example 1449] the same measures were 610 nM, 350 nM and 870 nM.
Taken in the same sequence, the figures for `CCC(c1ccc(OC(C)C)cc1)N1C[C@H](C)N(c2cc(=O)n(C)c3ccc(C#N)nc23)C[C@H]1C` (single isomer, unassigned) [Example 1450] were 22000 nM, 3600 nM and 6800 nM.
Turning to `Cn1c(=O)c(C#N)c(N2CCN(C(c3ccc(F)cc3)c3ccc(F)cc3)C(CF)C2)c2nc(Br)ccc21` (stereo not drawn) [Example 9, 4-(4-(bis(4-fluorophenyl)methyl)-3-(fluoromethyl)piperazin-1-yl)-6-bromo-1-methyl-2-oxo-1,2-dihydro-1,5-naphthyridine-3-carbonitrile], the IC50 turned out to be 2100 nM in test [1] and 9500 nM in test [2]. Besides, the EC50 in test [3] (Homo sapiens, 24 h) amounted to 1600 nM.
In the case of `CC[C@@H]1CN(c2c(F)c(=O)n(C)c3ccc(C#N)nc23)CCN1C(c1ccc(Cl)cc1)c1ccc(Cl)cc1` [Example 178, (R)-8-(4-(bis(4-chlorophenyl)methyl)-3-ethylpiperazin-1-yl)-7-fluoro-5-methyl-6-oxo-5,6-dihydro-1,5-naphthyridine-2-carbonitrile], the IC50 in test [1] amounted to 610 nM; in test [2] it was 390 nM. Besides, in test [3] (Homo sapiens, 24 h), the EC50 turned out to be 580 nM.

The values above are taken from patent US10669272B2, “Substituted naphthyridinone compounds useful as T cell activators” (BRISTOL-MYERS SQUIBB COMPANY, priority 2018, dated 2020).
